Results published in ChEMBL document CHEMBL1201862, “PubChem BioAssay data set” (2004).
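All cell lines were grown in 96-well plates and treated with compound for 48 hours. The concentration for 50% growth inhibition is given as GI50.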 Active and inactive are the calls of the source. Cut-off read from the data, not from the text of the source: active = GI50 up to about 1.1 µM and inactive = higher.

Experiments:
Assay in all cases: NCI-60 cell line screen, 48 h
IGROV-1 = tested on: IGROV-1
SF-268 = tested on: SF-268
HOP-62 = tested on: HOP-62
A549 = tested on: A549
Malme-3M = tested on: Malme-3M
SF-295 = tested on: SF-295
SN12C = tested on: SN12C
SNB-19 = tested on: SNB-19
MDA-MB-435 = tested on: MDA-MB-435
HCC 2998 = tested on: HCC 2998
MDA-MB-231 = tested on: MDA-MB-231
OVCAR-4 = tested on: OVCAR-4
M14 = tested on: M14
SW-620 = tested on: SW-620
TK-10 = tested on: TK-10
UACC-62 = tested on: UACC-62
HT-29 = tested on: HT-29
NCI-H460 = tested on: NCI-H460
RPMI-8226 = tested on: RPMI-8226
SK-MEL-2 = tested on: SK-MEL-2
SK-MEL-5 = tested on: SK-MEL-5
CCRF-CEM = tested on: CCRF-CEM
BT-549 = tested on: BT-549
OVCAR-3 = tested on: OVCAR-3
MDA-N = tested on: MDA-N
EKVX = tested on: EKVX
OVCAR-8 = tested on: OVCAR-8
HL-60 = tested on: HL-60
MOLT-4 = tested on: MOLT-4
HOP-92 = tested on: HOP-92
COLO 205 = tested on: COLO 205
SK-OV-3 = tested on: SK-OV-3
HCT-116 = tested on: HCT-116
T47D = tested on: T47D
CAKI-1 = tested on: CAKI-1
ACHN = tested on: ACHN
RXF 393 = tested on: RXF 393
HCT-15 = tested on: HCT-15
OVCAR-5 = tested on: OVCAR-5
U-251 = tested on: U-251
NCI-H23 = tested on: NCI-H23
KM12 = tested on: KM12
786-0 = tested on: 786-0
MCF7 = tested on: MCF7
DU-145 = tested on: DU-145
K562 = tested on: K562
NCI-H522 = tested on: NCI-H522
SK-MEL-28 = tested on: SK-MEL-28
Hs-578T = tested on: Hs-578T
PC-3 = tested on: PC-3
LOX IMVI = tested on: LOX IMVI
A498 = tested on: A498
NCI/ADR-RES = tested on: NCI/ADR-RES
UO-31 = tested on: UO-31
SNB-75 = tested on: SNB-75
UACC-257 = tested on: UACC-257
SR = tested on: SR
NCI-H226 = tested on: NCI-H226
SF-539 = tested on: SF-539

SMILES: COc1cc(/C=C2\N=C(c3ccccc3)N(c3nc4ccc(Sc5ccccc5)cc4[nH]3)C2=O)cc(OC)c1OC
- GI50 (IGROV-1): 45.4 µM (inactive)
- GI50 (SF-268): 26.2 µM (inactive)
- GI50 (HOP-62): 31.5 µM (inactive)
- GI50 (A549): 34.3 µM (inactive)
- GI50 (Malme-3M): 16.9 µM (inactive)
- GI50 (SF-295): 23.6 µM (inactive)
- GI50 (SN12C): 27.9 µM (inactive)
- GI50 (SNB-19): 33.6 µM (inactive)
- GI50 (MDA-MB-435): 5.19 µM (inactive)
- GI50 (HCC 2998): 16.5 µM (inactive)
- GI50 (MDA-MB-231): 20.6 µM (inactive)
- GI50 (OVCAR-4): 41.1 µM (inactive)
- GI50 (M14): 19.3 µM (inactive)
- GI50 (SW-620): 25 µM (inactive)
- GI50 (TK-10): 24.6 µM (inactive)
- GI50 (UACC-62): 15.4 µM (inactive)
- GI50 (HT-29): 21.4 µM (inactive)
- GI50 (NCI-H460): 21.6 µM (inactive)
- GI50 (RPMI-8226): 20.1 µM (inactive)
- GI50 (SK-MEL-2): 15.4 µM (inactive)
- GI50 (SK-MEL-5): 13.2 µM (inactive)
- GI50 (CCRF-CEM): 27.1 µM (inactive)
- GI50 (BT-549): 20.8 µM (inactive)
- GI50 (OVCAR-3): 22.6 µM (inactive)
- GI50 (MDA-N): 4.76 µM (inactive)
- GI50 (EKVX): 38.7 µM (inactive)
- GI50 (OVCAR-8): 32.7 µM (inactive)
- GI50 (HL-60): 14.7 µM (inactive)
- GI50 (MOLT-4): 26.8 µM (inactive)
- GI50 (HOP-92): 58.6 µM (inactive)
- GI50 (COLO 205): 18.9 µM (inactive)
- GI50 (SK-OV-3): 30.1 µM (inactive)
- GI50 (HCT-116): 20.7 µM (inactive)
- GI50 (T47D): 17.9 µM (inactive)
- GI50 (CAKI-1): 31.1 µM (inactive)
- GI50 (ACHN): 22.9 µM (inactive)
- GI50 (RXF 393): 22.1 µM (inactive)
- GI50 (HCT-15): 21.1 µM
- GI50 (OVCAR-5): 33.7 µM (inactive)
- GI50 (U-251): 18.3 µM (inactive)
- GI50 (NCI-H23): 27 µM (inactive)
- GI50 (KM12): 17.6 µM (inactive)
- GI50 (786-0): 20.4 µM (inactive)
- GI50 (MCF7): 17.8 µM (inactive)
- GI50 (DU-145): 21.8 µM (inactive)
- GI50 (K562): 13.2 µM (inactive)
- GI50 (NCI-H522): 18.1 µM (inactive)
- GI50 (SK-MEL-28): 24 µM (inactive)
- GI50 (Hs-578T): 30.8 µM (inactive)
- GI50 (PC-3): 26.9 µM (inactive)
- GI50 (LOX IMVI): 23.3 µM (inactive)
- GI50 (A498): 22 µM (inactive)
- GI50 (NCI/ADR-RES): 20.4 µM (inactive)
- GI50 (UO-31): 34.4 µM (inactive)
- GI50 (SNB-75): 17.4 µM (inactive)
- GI50 (UACC-257): 19.6 µM (inactive)

SMILES: CC(C)(C)OC(=O)N1C(OP(=O)(Oc2ccccc2)Oc2ccccc2)=COc2cccnc21
- GI50 (IGROV-1): 42.6 µM (inactive)
- GI50 (SF-268): 63.2 µM (inactive)
- GI50 (HOP-62): 60.5 µM (inactive)
- GI50 (A549): 46.6 µM (inactive)
- GI50 (Malme-3M): 30.6 µM (inactive)
- GI50 (SF-295): 34.7 µM (inactive)
- GI50 (SN12C): 70.1 µM (inactive)
- GI50 (SR): 27.3 µM (inactive)
- GI50 (NCI-H226): 69.8 µM (inactive)
- GI50 (SNB-19): 78.9 µM (inactive)
- GI50 (MDA-MB-435): 39.4 µM (inactive)
- GI50 (HCC 2998): 42.1 µM (inactive)
- GI50 (MDA-MB-231): 71 µM (inactive)
- GI50 (OVCAR-4): 45.8 µM (inactive)
- GI50 (M14): 37.1 µM (inactive)
- GI50 (SW-620): 38.9 µM (inactive)
- GI50 (TK-10): 31 µM (inactive)
- GI50 (UACC-62): 64.6 µM (inactive)
- GI50 (HT-29): 82.6 µM (inactive)
- GI50 (NCI-H460): 31.8 µM (inactive)
- GI50 (RPMI-8226): 21.8 µM (inactive)
- GI50 (SK-MEL-2): 22.3 µM (inactive)
- GI50 (SK-MEL-5): 18.4 µM (inactive)
- GI50 (BT-549): 63.7 µM (inactive)
- GI50 (OVCAR-3): 72.3 µM (inactive)
- GI50 (MDA-N): 36.3 µM (inactive)
- GI50 (EKVX): 60.7 µM (inactive)
- GI50 (OVCAR-8): 43.2 µM (inactive)
- GI50 (HL-60): 16.2 µM (inactive)
- GI50 (MOLT-4): 17.7 µM (inactive)
- GI50 (HOP-92): 26.1 µM (inactive)
- GI50 (COLO 205): 34.8 µM (inactive)
- GI50 (SF-539): > 100 µM (inactive)
- GI50 (SK-OV-3): 98.2 µM (inactive)
- GI50 (HCT-116): 51.2 µM (inactive)
- GI50 (T47D): 23 µM (inactive)
- GI50 (CAKI-1): 40.3 µM (inactive)
- GI50 (ACHN): 29.9 µM (inactive)
- GI50 (RXF 393): 91.8 µM (inactive)
- GI50 (HCT-15): 48.8 µM
- GI50 (OVCAR-5): > 100 µM (inactive)
- GI50 (U-251): 40.5 µM (inactive)
- GI50 (NCI-H23): 45.5 µM (inactive)
- GI50 (KM12): 31.4 µM (inactive)
- GI50 (786-0): 94.6 µM (inactive)
- GI50 (MCF7): 32.7 µM (inactive)
- GI50 (DU-145): > 100 µM (inactive)
- GI50 (K562): 44.9 µM (inactive)
- GI50 (NCI-H522): 47 µM (inactive)
- GI50 (SK-MEL-28): 54.2 µM (inactive)
- GI50 (Hs-578T): 86.5 µM (inactive)
- GI50 (PC-3): 84.5 µM (inactive)
- GI50 (LOX IMVI): 26.1 µM (inactive)
- GI50 (NCI/ADR-RES): 40.7 µM (inactive)
- GI50 (UO-31): 42.9 µM (inactive)
- GI50 (SNB-75): 33.3 µM (inactive)
- GI50 (UACC-257): 30 µM (inactive)
